# Source: PubChem BioAssay (NCI)
#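 GI50 is the concentration that inhibits growth by half. At the TGI there is no net growth.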
# Key:
# Assay in all cases: DTP human tumour cell line panel, 384-well format
# OVCAR-3 ovarian = system: OVCAR-3 ovarian
# KM12 colon = system: KM12 colon
# EKVX NSCLC = system: EKVX NSCLC
# MALME-3M melanoma = system: MALME-3M melanoma
# HOP-92 NSCLC = system: HOP-92 NSCLC
# SW-620 colon = system: SW-620 colon
# SNB-19 CNS = system: SNB-19 CNS
# HCT-15 colon = system: HCT-15 colon
# DU-145 prostate = system: DU-145 prostate
# HT29 colon = system: HT29 colon
# NCI-H522 lung = system: NCI-H522 lung
# SF-268 CNS = system: SF-268 CNS
# NCI-H23 lung = system: NCI-H23 lung
# SF-295 CNS = system: SF-295 CNS
# BT-549 breast = system: BT-549 breast
# SNB-75 CNS = system: SNB-75 CNS
# K-562 leukemia = system: K-562 leukemia
# PC-3 prostate = system: PC-3 prostate
# SK-MEL-5 melanoma = system: SK-MEL-5 melanoma
# OVCAR-8 ovarian = system: OVCAR-8 ovarian
# MCF7 breast = system: MCF7 breast
# UACC-257 melanoma = system: UACC-257 melanoma
# IGROV1 ovarian = system: IGROV1 ovarian
# SK-OV-3 ovarian = system: SK-OV-3 ovarian
# COLO 205 colon = system: COLO 205 colon
# SF-539 CNS = system: SF-539 CNS
# U251 glioblastoma = system: U251 glioblastoma
# HL-60(TB) leukemia = system: HL-60(TB) leukemia
# HCC-2998 colon = system: HCC-2998 colon
# UO-31 renal = system: UO-31 renal
# M14 melanoma = system: M14 melanoma
# MDA-MB-468 breast = system: MDA-MB-468 breast
# NCI/ADR-RES ovarian = system: NCI/ADR-RES ovarian
# HS 578T breast = system: HS 578T breast
# NCI-H460 NSCLC = system: NCI-H460 NSCLC
# T-47D breast = system: T-47D breast
# MDA-MB-435 melanoma = system: MDA-MB-435 melanoma
# UACC-62 melanoma = system: UACC-62 melanoma
# CCRF-CEM leukemia = system: CCRF-CEM leukemia
# NCI-H322M lung = system: NCI-H322M lung
# OVCAR-4 ovarian = system: OVCAR-4 ovarian
# SN12C renal = system: SN12C renal
# TK-10 renal = system: TK-10 renal
# MOLT-4 leukemia = system: MOLT-4 leukemia
# RXF 393 renal = system: RXF 393 renal
# LOX IMVI melanoma = system: LOX IMVI melanoma
# NCI-H226 lung = system: NCI-H226 lung
# A549 NSCLC = system: A549 NSCLC
# CAKI-1 renal = system: CAKI-1 renal
# HCT-116 colon = system: HCT-116 colon
# RPMI-8226 leukemia = system: RPMI-8226 leukemia
# SK-MEL-28 melanoma = system: SK-MEL-28 melanoma
# A498 renal = system: A498 renal
# HOP-62 NSCLC = system: HOP-62 NSCLC
# SR leukemia = system: SR leukemia
# MDA-MB-231 breast = system: MDA-MB-231 breast
# 786-0 renal = system: 786-0 renal
# ACHN renal = system: ACHN renal
compound,measurement,setting,value
CNc1ncc2cc(-c3cc(NC(=O)NCCC(C)(C)C)c(F)cc3C)c(C)nc2n1,GI50,OVCAR-3 ovarian,1.23 µM
same,TGI,OVCAR-3 ovarian,55.8 µM
same,GI50,KM12 colon,0.501 µM
same,TGI,KM12 colon,38.3 µM
same,GI50,EKVX NSCLC,2.09 µM
same,TGI,EKVX NSCLC,82.4 µM
same,GI50,MALME-3M melanoma,< 0.01 µM
same,GI50,HOP-92 NSCLC,0.166 µM
same,TGI,HOP-92 NSCLC,0.409 µM
same,GI50,SW-620 colon,0.334 µM
same,TGI,SW-620 colon,15.4 µM
same,GI50,SNB-19 CNS,1.55 µM
same,TGI,SNB-19 CNS,71 µM
same,GI50,HCT-15 colon,0.525 µM
same,TGI,HCT-15 colon,38.6 µM
same,GI50,DU-145 prostate,0.652 µM
same,TGI,DU-145 prostate,32.4 µM
same,GI50,HT29 colon,0.0268 µM
same,TGI,HT29 colon,13.1 µM
same,GI50,NCI-H522 lung,0.67 µM
same,TGI,NCI-H522 lung,9.38 µM
same,GI50,SF-268 CNS,1.09 µM
same,TGI,SF-268 CNS,16.1 µM
same,GI50,NCI-H23 lung,0.0472 µM
same,TGI,NCI-H23 lung,0.443 µM
same,GI50,SF-295 CNS,1.2 µM
same,TGI,SF-295 CNS,> 100 µM
same,GI50,BT-549 breast,1.26 µM
same,TGI,BT-549 breast,19.9 µM
same,GI50,SNB-75 CNS,0.361 µM
same,TGI,SNB-75 CNS,15.4 µM
same,GI50,K-562 leukemia,0.126 µM
same,TGI,K-562 leukemia,0.284 µM
same,GI50,PC-3 prostate,13.3 µM
same,TGI,PC-3 prostate,> 100 µM
same,GI50,SK-MEL-5 melanoma,0.0382 µM
same,TGI,SK-MEL-5 melanoma,4.2 µM
same,GI50,OVCAR-8 ovarian,0.489 µM
same,TGI,OVCAR-8 ovarian,48.9 µM
same,GI50,MCF7 breast,7.04 µM
same,TGI,MCF7 breast,> 100 µM
same,GI50,UACC-257 melanoma,0.0166 µM
same,TGI,UACC-257 melanoma,0.119 µM
same,GI50,IGROV1 ovarian,0.157 µM
same,TGI,IGROV1 ovarian,1.05 µM
same,GI50,SK-OV-3 ovarian,0.303 µM
same,TGI,SK-OV-3 ovarian,4.16 µM
same,GI50,COLO 205 colon,0.0144 µM
same,TGI,COLO 205 colon,0.543 µM
same,GI50,SF-539 CNS,1.75 µM
same,TGI,SF-539 CNS,19.2 µM
same,GI50,U251 glioblastoma,0.506 µM
same,TGI,U251 glioblastoma,13 µM
same,GI50,HL-60(TB) leukemia,0.0171 µM
same,TGI,HL-60(TB) leukemia,0.13 µM
same,GI50,HCC-2998 colon,0.127 µM
same,TGI,HCC-2998 colon,11.5 µM
same,GI50,UO-31 renal,0.21 µM
same,TGI,UO-31 renal,23.6 µM
same,GI50,M14 melanoma,< 0.01 µM
same,TGI,M14 melanoma,0.0364 µM
same,GI50,MDA-MB-468 breast,12.8 µM
same,TGI,MDA-MB-468 breast,35.2 µM
same,GI50,NCI/ADR-RES ovarian,3.08 µM
same,TGI,NCI/ADR-RES ovarian,83.7 µM
same,GI50,HS 578T breast,0.354 µM
same,TGI,HS 578T breast,7.89 µM
same,GI50,NCI-H460 NSCLC,0.302 µM
same,TGI,NCI-H460 NSCLC,13.8 µM
same,GI50,T-47D breast,2.4 µM
same,TGI,T-47D breast,37.7 µM
same,GI50,MDA-MB-435 melanoma,0.0336 µM
same,TGI,MDA-MB-435 melanoma,27.3 µM
same,GI50,UACC-62 melanoma,< 0.01 µM
same,TGI,UACC-62 melanoma,0.0517 µM
same,GI50,CCRF-CEM leukemia,0.495 µM
same,TGI,CCRF-CEM leukemia,18.3 µM
same,GI50,NCI-H322M lung,0.318 µM
same,TGI,NCI-H322M lung,12.9 µM
same,GI50,OVCAR-4 ovarian,18.3 µM
same,TGI,OVCAR-4 ovarian,> 100 µM
same,GI50,SN12C renal,0.173 µM
same,TGI,SN12C renal,0.889 µM
same,GI50,TK-10 renal,0.599 µM
same,TGI,TK-10 renal,4.67 µM
same,GI50,MOLT-4 leukemia,0.36 µM
same,TGI,MOLT-4 leukemia,15.4 µM
same,GI50,RXF 393 renal,0.44 µM
same,TGI,RXF 393 renal,10.5 µM
same,GI50,LOX IMVI melanoma,0.0277 µM
same,TGI,LOX IMVI melanoma,0.237 µM
same,GI50,NCI-H226 lung,0.299 µM
same,TGI,NCI-H226 lung,15.7 µM
same,GI50,A549 NSCLC,0.711 µM
same,TGI,A549 NSCLC,15.2 µM
same,GI50,CAKI-1 renal,0.134 µM
same,TGI,CAKI-1 renal,1.23 µM
same,GI50,HCT-116 colon,0.0585 µM
same,TGI,HCT-116 colon,0.916 µM
same,GI50,RPMI-8226 leukemia,0.162 µM
same,TGI,RPMI-8226 leukemia,0.585 µM
same,GI50,SK-MEL-28 melanoma,< 0.01 µM
same,TGI,SK-MEL-28 melanoma,0.0359 µM
same,GI50,A498 renal,0.294 µM
same,TGI,A498 renal,> 100 µM
same,GI50,HOP-62 NSCLC,0.367 µM
same,TGI,HOP-62 NSCLC,15.9 µM
same,GI50,SR leukemia,0.181 µM
same,TGI,SR leukemia,0.385 µM
same,GI50,MDA-MB-231 breast,0.0479 µM
same,TGI,MDA-MB-231 breast,0.397 µM
same,GI50,786-0 renal,0.676 µM
same,TGI,786-0 renal,39.1 µM
same,GI50,ACHN renal,0.25 µM
same,TGI,ACHN renal,19.1 µM
